Results: patent US20100292185A1, “BETA-LACTAMASE INHIBITORS” (priority 2009, published 2010)
pIC50: −log10 of the molar value. Counter-ions that a name gives are not always drawn.

Legend:
KPC-2 β-lactamase = target: T1, KPC-2 β-lactamase (Klebsiella pneumoniae, UniProt Q9F663); test: β-lactamase enzyme inhibition assay (nitrocefin substrate), KPC-2; assay type: biochemical
T1 construct: expressed as native untagged proteins; made in house; host or cells: E. coli BL21(DE3)
Method: (§1) Isolation of β-lactamases. For SHV-5, p99 AmpC, KPC-2 and CTX-M15 β-lactamases, E. coli BL21(DE3) bacterial cells carrying expression plasmids (expressed as native untagged proteins) for the individual β-lactamases were grown in 1 L of Superbroth (Teknova Inc. Hollister, Calif.) supplemented with 100 μg/ml kanamycin and 1×5052 (0.5% glycerol, 0.05% glucose and 0.2% α-lactose) at 35° C. for 18-20 hours. Cells were harvested by centrifugation (4,000×g, 4° C., 20 min), and resuspended in 50 ml of 10 mM HEPES pH 7.5 (1/20 of the initial volume). The cells were lysed by sonication (5 pulses of 45 seconds) at 45 W on ice. The lysates were clarified by centrifugation at 10,000×g for 40 minutes at 4° C. Samples were diluted 5-fold in 50 mM sodium acetate pH 5.0, stored overnight at 4° C., after which they were centrifuged at 10,000×g for 30 minutes to clarify, and filtered through 0.45 μm filters. The samples were loaded onto a 5 ml Capto S sepharose cation exchange column (GE Healthcare) pre-equilibrated with 50 mM sodium acetate pH 5.0. The column was washed with 5 column volumes of 50 mM sodium acetate pH 5.0 to wash out unbound protein and a linear gradient of NaCl (0 to 500 mM) was used to elute the protein (over 16 CV) from the column. Fractions were assayed for β-lactamase activity using Centa (Calbiochem, Gibbstown, N.J.) as a reporter β-lactamase substrate for activity in the isolated fractions. Active fractions were pooled, concentrated and further purified by gel filtration chromatography on a Superdex 75 prep grade gel filtration column (GE Healthcare, Piscataway, N.J.) pre-equilibrated in 50 mM Hepes pH 7.5, 150 mM NaCl. Active fractions were pooled concentrated, quantitated by BCA protein determination (Thermo Scientific, Rockford, Ill.), and frozen at −80° C. in 20% glycerol until use.
(§2) β-lactamase Inhibition. To determine the level of inhibition of β-lactamase enzymes, compounds were diluted in PBS at pH 7.0 to yield concentrations between 100 and 0.005 μM in microtiter plates. An equal volume of diluted enzyme stock was added, and the plates were incubated at 37° C. for 10 min. Nitrocefin solution was then dispensed as substrate into each well at a final concentration of 100 μM, and the plates were immediately read with the kinetic program at 486 nm for 10 min on the SPECTRAMAX® Plus^384 (high-throughput microplate spectrophotometer; Molecular Devices Corp., Sunnyvale, Calif.). Maximum rates of metabolism were then compared to those in control wells (without inhibitors), and percentages of enzyme inhibition were calculated for each concentration of inhibitor. The concentration of inhibitor needed to reduce the initial rate of hydrolysis of substrate by 50% (IC50) was calculated as the residual activity of β-lactamase at 486 nm using the SoftMax Pro 5.0 software (Molecular Devices Corp.).
(§3) Using the methodology described above, examples of the current invention were evaluated for their ability to inhibit β-lactamase enzymes. The results of these assays are summarized in Table 2 for representative enzymes across different subtypes (note SHV-5 and CTXM-15 exemplify different subclasses of Ambler Class A Extended Spectrum Beta Lactamases, KPC-2 exemplifies Class A carbapenemases, P99 represents chromosomal Class C AmpC, VIM-2 exemplifies subclass B1 of metallo-β-lactamases, and OXA-23 represents chromosome-encoded Class D oxacillin-hydrolyzing β-lactamases), NT=not tested.

[1] = test system: E. coli expressing the Class A ESBL SHV-5; test: In vitro antibacterial assay of β-lactamase inhibition (broth microdilution MIC), E. coli SHV-5; assay type: cell-based; conditions: for MIC of example compound, E. coli SHV-5: in presence of Piperacillin 16 μg/ml (Examples 57-65)
Description: (§4) To determine the ability of test compounds to potentiate the inhibition of the growth of bacterial strains producing beta-lactamase enzymes, classic cell based screening assays were employed. Five bacteria strains producing beta-lactamase enzymes were used: K. pneumoniae expressing the Class A Extended Spectrum Beta-Lactamase (ESBL) CTX-M-15, E. coli expressing the Class A ESBL SHV-5, E. cloacae expressing the Class C P99+, K. pneumoniae expressing the Class A carbapenemase KPC-2, and P. aeruginosa expressing the Class B metallo β-lactamase VIM-2. In order to evaluate the ability of test compounds to inhibit beta-lactamase activity, Applicants used a modification of the broth microdilution assay. The assay was conducted in Cation Adjusted Mueller Hinton Broth (CAMHB, BD # 212322, BD Diagnostic Systems, Sparks, Md.). Bacteria strains were grown for 3-5 hours in CAMBH broth. All five strains were grown in presence of 50 μg/mL ampicillin to ensure resistance is maintained. In the meantime, test compounds were diluted in DMSO to a 0.1 mg/mL stock. The compounds were added to a microtiter plate and were diluted in 2-fold serial dilutions in CAMHB in a final concentration range of 8 μg/mL to 0.015 μg/ml. […] Each of these compound plates are made in quadruplicate, one for each bacteria strain. In addition to the titration of test compounds the MICs of a panel of cephalosporins is also tested to ensure the strains are behaving consistently from test to test. Once the test compound and cephalosporin are added the plates can be inoculated. Inocula are conducted according to CLSI broth microdilution method. After inoculation the plates are incubated for 16-20 hours at 37° C. then the Minimal Inhibitory Concentration (MIC) of the test compound is determined visually.
(§5) Using the methodology described above, examples of the current invention were evaluated for their ability to inhibit the growth of β-lactamase producing bacteria in the presence of a β-lactam antibiotic.

p99 AmpC β-lactamase = target: T2, p99 AmpC β-lactamase (Enterobacter cloacae, UniProt P05364); test: β-lactamase enzyme inhibition assay (nitrocefin substrate), P99 AmpC; assay type: biochemical; conditions: nitrocefin 100 μM, 37° C., PBS pH 7.0; read-out: P99 AmpC IC50
T2 construct: expressed as native untagged proteins; made in house; host or cells: E. coli BL21(DE3)
T2 sequence (P05364 21-381): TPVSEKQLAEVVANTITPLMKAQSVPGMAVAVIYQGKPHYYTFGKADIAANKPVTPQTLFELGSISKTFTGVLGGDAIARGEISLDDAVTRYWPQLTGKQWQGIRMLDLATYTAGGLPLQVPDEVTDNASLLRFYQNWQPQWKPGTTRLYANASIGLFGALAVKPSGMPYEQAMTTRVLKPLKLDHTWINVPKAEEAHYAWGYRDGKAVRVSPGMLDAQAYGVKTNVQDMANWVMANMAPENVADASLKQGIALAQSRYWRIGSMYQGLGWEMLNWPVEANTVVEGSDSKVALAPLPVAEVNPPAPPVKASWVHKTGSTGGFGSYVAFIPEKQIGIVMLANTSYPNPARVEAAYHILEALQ
Method: as §1, §2, §3

SHV-5 β-lactamase = target: T3, SHV-5 β-lactamase (Klebsiella pneumoniae, UniProt P0A3M1); test: β-lactamase enzyme inhibition assay (nitrocefin substrate), SHV-5; assay type: biochemical
T3 construct: expressed as native untagged proteins; made in house; host or cells: E. coli BL21(DE3)
T3 sequence (P0A3M1 22-286): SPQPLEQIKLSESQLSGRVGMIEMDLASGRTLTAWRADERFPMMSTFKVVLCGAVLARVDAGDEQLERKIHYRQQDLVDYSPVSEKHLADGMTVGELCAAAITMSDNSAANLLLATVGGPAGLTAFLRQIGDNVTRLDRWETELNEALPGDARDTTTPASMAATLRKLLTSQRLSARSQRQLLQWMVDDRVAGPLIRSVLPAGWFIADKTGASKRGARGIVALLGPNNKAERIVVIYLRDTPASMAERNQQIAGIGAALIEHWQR
Method: as §1, §2, §3

[2] = test system: K. pneumoniae expressing the Class A carbapenemase KPC-2; test: microbe, parasite or virus in culture; assay type: cell-based; conditions: for MIC of example compound, K. pneumoniae KPC-2: in presence of Piperacillin 16 μg/ml (Examples 57-65)
Description: as §4, §5

[3] = test system: E. cloacae expressing the Class C P99+; test: In vitro antibacterial assay of β-lactamase inhibition (broth microdilution MIC), E. cloacae P99+; assay type: cell-based; conditions: for MIC of example compound, E. cloacae P99+: in presence of Piperacillin 16 μg/ml (Examples 57-65)
Description: as §4, §5

[4] = test system: K. pneumoniae expressing the Class A Extended Spectrum Beta-Lactamase (ESBL) CTX-M-15; test: In vitro antibacterial assay of β-lactamase inhibition (broth microdilution MIC), K. pneumoniae CTX-M-15; assay type: cell-based; conditions: for MIC of example compound, K. pneumoniae CTX-M-15: in presence of Piperacillin 16 μg/ml (Examples 57-65)
Description: as §4, §5

CTX-M15 β-lactamase = target: T4, CTX-M15 β-lactamase (Escherichia coli, UniProt Q9EXV5); test: β-lactamase enzyme inhibition assay (nitrocefin substrate), CTXM-15; assay type: biochemical
T4 construct: expressed as native untagged proteins; made in house; host or cells: E. coli BL21(DE3)
T4 sequence (Q9EXV5 entry or part of it): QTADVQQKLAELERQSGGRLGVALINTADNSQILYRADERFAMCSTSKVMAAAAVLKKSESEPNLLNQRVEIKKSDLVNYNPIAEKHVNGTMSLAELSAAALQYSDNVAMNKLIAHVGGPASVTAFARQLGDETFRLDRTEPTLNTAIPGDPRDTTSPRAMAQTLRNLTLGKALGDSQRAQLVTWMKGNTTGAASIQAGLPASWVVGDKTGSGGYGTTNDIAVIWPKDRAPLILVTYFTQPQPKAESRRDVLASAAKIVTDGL
Method: as §1, §2, §3

[5] = test system: P. aeruginosa expressing the Class B metallo β-lactamase VIM-2; test: In vitro antibacterial assay of β-lactamase inhibition (broth microdilution MIC), P. aeruginosa VIM-2; assay type: cell-based; conditions: Pseudomonas aeruginosa, read-out: MIC alone, P. aeruginosa VIM-2
Description: as §4, §5

T1 sequence (Q9F663 25-293 limits assumed): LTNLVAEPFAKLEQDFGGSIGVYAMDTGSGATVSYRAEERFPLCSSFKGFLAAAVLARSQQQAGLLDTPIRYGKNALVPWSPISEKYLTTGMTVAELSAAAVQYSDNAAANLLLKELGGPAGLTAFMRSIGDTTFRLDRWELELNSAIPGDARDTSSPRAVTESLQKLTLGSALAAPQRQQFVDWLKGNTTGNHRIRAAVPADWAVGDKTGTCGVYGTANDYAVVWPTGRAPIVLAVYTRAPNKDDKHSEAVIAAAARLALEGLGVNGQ

SMILES | pIC50 (KPC-2 β-lactamase) | MIC of example compound, E. coli SHV-5 [1] | pIC50 (p99 AmpC β-lactamase) | pIC50 (SHV-5 β-lactamase) | MIC of example compound, K. pneumoniae KPC-2 [2] | MIC of example compound, E. cloacae P99+ [3] | MIC of example compound, K. pneumoniae CTX-M-15 [4] | pIC50 (CTX-M15 β-lactamase) | MIC [5] | MIC ([1]; Escherichia coli, read-out: MIC alone, E. coli SHV-5) | MIC ([2]; Klebsiella pneumoniae, read-out: MIC alone, K. pneumoniae KPC-2) | MIC ([3]; Enterobacter cloacae, read-out: MIC alone, E. cloacae P99+ AmpC) | MIC ([4]; Klebsiella pneumoniae, read-out: MIC alone, K. pneumoniae CTX-M-15)
N=C(N)NCCC[C@H](NCc1ccc(CC(=O)N[C@@H](Cc2cccc(C(=O)O)c2O)B(O)O)cc1)C(=O)O [Example 59, (1R)-1-(2-{4-[(1-Carboxy-4-guanidino-butylamino)-methyl]-phenyl}-acetylamino)-1-[(3-carboxy-2-hydroxy)benzyl]-methylboronic acid formate] | 7.82 | 0.5 µg/mL | 8.22 | 8.70 | 1 µg/mL | 2 µg/mL | >16 µg/mL | – | – | – | – | – | –
O=C(Cc1ccc(CNC(CO)C(=O)O)cc1)N[C@@H](Cc1cccc(C(=O)O)c1O)B(O)O (stereo partly drawn) [Example 60, (1R)-1-(2-{4-[(1-Carboxy-2-hydroxy-ethylamino)-methyl]-phenyl}-acetylamino)-1-[(3-carboxy-2-hydroxy)benzyl]-methylboronic acid formate] | 7.96 | 1 µg/mL | 8.05 | 8.70 | 0.5 µg/mL | 2 µg/mL | >16 µg/mL | – | – | – | – | – | –
N=C(N)NCc1ccc(CC(=O)N[C@@H](Cc2cccc(C(=O)O)c2O)B(O)O)cc1 [Example 61, (1R)-1-{2-[4-(1-guanidinomethyl)-phenyl]-acetylamino}-1-[(3-carboxy-2-hydroxy)benzyl]-methylboronic acid formate salt] | 7.85 | 0.25 µg/mL | 7.96 | 8.70 | 0.25 µg/mL | 0.25 µg/mL | 16 µg/mL | 8.40 | – | – | – | – | –
N=C(N)c1ccc(CC(=O)N[C@@H](Cc2cccc(C(=O)O)c2O)B(O)O)cc1 [Example 62, (1R)-1-{2-[4-(Carbamimidoyl)-phenyl]-acetylamino}-1-[(3-carboxy-2-hydroxy)benzyl]-methylboronic acid formate salt] | 8.05 | 0.125 µg/mL | 8.52 | 8.70 | 0.125 µg/mL | 0.125 µg/mL | >128 µg/mL | – | – | – | – | – | –
N=C(N)NCc1cccc(CC(=O)N[C@@H](Cc2cccc(C(=O)O)c2O)B(O)O)c1 [Example 65, (1R)-1-{2-[3-(1-guanidinomethyl)-phenyl]-acetylamino}-1-[(3-carboxy-2-hydroxy)benzyl]-methylboronic acid formate salt] | – | 0.25 µg/mL | – | – | 0.5 µg/mL | 0.25 µg/mL | >16 µg/mL | – | – | – | – | – | –
CCN1CCN(C(=O)N[C@@H](C(=O)N[C@@H]2C(=O)N3[C@@H]2SC(C)(C)[C@@H]3C(=O)O)c2ccccc2)C(=O)C1=O [Pip, Piperacillin, reference compound] | – | – | – | – | – | – | – | – | > 128 µg/mL | > 128 µg/mL | > 128 µg/mL | > 128 µg/mL | > 128 µg/mL
